Measurements as given in patent US20240408071A1, “NOVEL COMBINATION OF SEROTONIN RECEPTOR (5-HTR2B) ANTAGONIST AND AN IMMUNOMODULATOR AND CHEMOTHERAPEUTIC DRUGS FOR INHIBITION OF CANCER” (NATIONAL CENTRE FOR CELL SCIENCE, priority 2021, published 2024).
“Also recorded” adds a separate entry of the source.

Legend:
PD-L1 [1] = assay: PD-L1 expression on MC38 cells in vitro (flow cytometry, mRNA); assay type: cell-based, mouse; settings: BW-723C86 50 μM, serotonin 100 μM, RS-127445 50 μM, 72 hours (mRNA 48 hours) (FIG. 13A-E)
Experimental: (§1) FIG. 13 depicts 5-HTR2B signaling promotes PD-L1 expression on the MC38 cell line in vitro: (A-B) MC38 cells are treated with 5-HTR2B agonist (BW-723C86-50 μM), serotonin (100 μM), and 5-HTR2B antagonist (RS-127445-50 μM) for 72 hours, and the PD-L1 expression was checked by flow cytometry and the percentage of PD-L1^+ MC38 cells was plotted. (C-D) MFI of PD-L1 from the above experiment were plotted as histogram overlay (C) or as statistical data points (D). (E) Relative PD-L1 mRNA expression in MC38 cells following BW-723C86 and RS-127445 treatment for 48 hours. Here the values are shown as a fold change as compared to control MC38 cells. (F) Serum PD-L1 level was measured by ELISA of naïve C57BL/6J mice, control MC38 tumor-bearing mice, BW-723C86 (5 mg/kg/day) treated MC38 tumor-bearing mice and RS-127445 (5 mg/kg/day) treated MC38 tumor-bearing mice after 14 days of tumor inoculation. All the statistical analysis was performed using either Student's ‘t’ test or two-way ANOVA using Sidak's multiple comparison test. *P<0.05; **P<0.01; […]; ****P<0.0001 Error bar represents mean±standard error of means (SEM).
(§2) To understand it, investigations were done on whether 5-HTR2B signaling also affects the surface expression of molecules that alters inflammatory and cytotoxic immune cells. Among different molecules, PD-L1 is of particular interest as it is an immune checkpoint ligand that affects cytotoxic T-cell responses toward cancer. […] (FIG. 13F).

PD-L1 [2] = assay: Serum PD-L1 ELISA in MC38 tumor-bearing mice; assay type: in vivo, C57BL/6J mice; settings: MC38 tumor-bearing mice, 5 mg/kg/day, 14 days after tumor inoculation (FIG. 13F)
Experimental: as §1, with “(F) Serum PD-L1 level was measured by ELISA of naïve C57BL/6J mice, control MC38 tumor-bearing mice, BW-723C86 (5 mg/kg/day) treated MC38 tumor-bearing mice and RS-127445 (5 mg/kg/day) treated MC38 tumor-bearing mice after 14 days of tumor inoculation.” left out
Universal competitive serotonin ELISA kit was purchased from Novus biological (Catalog #NBP2-68127), and ELISA was performed according to the manufacturer's protocol. Mouse PD-L1 DuoSet ELISA kit was procured from the R&D System (Catalog #DY1019-05), and the ELISA was performed according to the manufacturer's guidelines.
as §2

MC38 colon cancer cells = assay: MC38 colon tumor growth (tumor volume) in C57BL/6 mice; assay type: in vivo
Experimental: Tumor volumes were measured and plotted. (B) MC38 colon cancer cells were injected subcutaneously into the right flank of C57BL/6 mice. After seven days when tumors became palpable, one group was treated with 5-HTR7 antagonist SB-269970 (n=6 mice; 3 mg/kg/day) or left untreated (n=6 mice). Tumor volume was measured and plotted. (C) After seven days of the setting of tumor growth, one group was treated with a serotonin transporter blocker (SSRI) sertraline hydrochloride (n=6 mice; 15 mg/kg/week) or left untreated (n=6 mice). Tumor volume was measured and plotted. (D) C57BL/6 mice were given subcutaneously injected MC38 cells. After seven days of tumor growth, one group of mice was treated with different doses of 5-HTR2B antagonist SB-215505 (n=6). Tumor volume was measured and plotted. (E) C57BL/6 mice were given subcutaneously injected MC38 cells. After seven days of the tumor growth, one group of mice was treated with different doses of 5-HTR2B antagonist SB-215505 (n=6), one group treated with 5-HTR2B agonist BW-723C86 (n=6; 4 mg/kg/day). Tumor volume was measured and plotted. (F) MC38 cells were subcutaneously injected into C57BL/6 mice. After seven days when the tumor became palpable in mice, one group of mice was treated with FDA-approved 5-HTR2B antagonist cariprazine (Carispec; Sun pharma) via oral gavage (n=5 mice; dose 5 mg/kg body weight/day) or left untreated (n=5 mice). Tumor growth was measured and plotted. […] All the statistical analysis was performed using Student's ‘t’ test or two-way ANOVA using Sidak's multiple comparison test. *P<0.05; **P<0.01; ***P<0.00; ****P<0.0001 Error bar represents mean±standard error of means (SEM).

`CC(N)Cc1c[nH]c2ccc(OCc3cccs3)cc12` (centres unmarked) [BW-723C86] was tested, and the “expression of PD-L1 in the colon cancer cells” value (PD-L1 [1]) was “increased the expression of PD-L1”, the “circulating free PD-L1 in the serum” value (PD-L1 [2]) was “increased the circulating free PD-L1 in the serum” and the MC38 tumor growth (MC38 colon cancer cells; 5-HTR2B agonist 4 mg/kg/day (FIG. 7E)) was “significantly promotes MC38 tumor growth”.

For `CC(C)c1cc(-c2ccc(F)c3ccccc23)nc(N)n1` [RS-127445], the “expression of PD-L1 in the colon cancer cells” value (PD-L1 [1]) was “reduced the expression of PD-L1”, the “circulating free PD-L1 in the serum” value (PD-L1 [2]) was “diminished” and the MC38 tumor growth (MC38 colon cancer cells; 4 mg/kg/day from day 7 after inoculation, vs untreated (FIG. 7A)) was “efficiently control the tumor growth; also recorded: potent molecule in reducing the tumor burden”. The “effect in controlling tumor growth compared to SB-215505” value (MC38 colon cancer cells; MC38 tumor, equivalent dose) was “even more potent effect in controlling tumor growth”, the “tumor growth, combination with 5-Fluorouracil” value (MC38 colon cancer cells; RS-127445 2 mg/kg/day + 5-Fluorouracil 10 mg/kg/alternate days, MC38 model (FIG. 16B)) was “much better response by reducing tumor growth than any of them alone” and the “efficacy of combination with Irinotecan” value (MC38 colon cancer cells; RS-127445 2 mg/kg/day + Irinotecan 15 mg/kg/day for 5 days, subcutaneous colon cancer model (FIG. 16D)) was “significantly enhanced the efficacy of irinotecan or RS-127445 alone”. The “efficacy of combination with Oxaliplatin” value (MC38 colon cancer cells; RS-127445 2 mg/kg/day + Oxaliplatin 4 mg/kg/day for 5 days, subcutaneous colon cancer model (FIG. 16C)) was “significantly enhanced the efficacy of oxaliplatin or RS-127445 alone” and the “efficacy of combination with trifluorothymidine” value (MC38 colon cancer cells; RS-127445 2 mg/kg/day + trifluorothymidine 20 mg/kg/day (FIG. 16E)) was “not found any significant alterations in the efficacy”.
